Results on one compound are retold here after patent US20220000893A1, “METHOD FOR TREATING T-HELPER TYPE 2 MEDIATED DISEASE” (|NSERM (INSTITUT NATIONAL DE LA SANTÉ ET DE LA RECHERCHE …, priority 2018, published 2022).

The experiment relates to differentiating wild-type Th2 cells. Put plainly: Th2 cell differentiation and commitment in Th2-polarizing culture with non-specific SETDB1 inhibitors; cytokine production by intracellular staining and flow cytometry. The following applies: naïve CD4 T cells, 6 days in Th2-polarizing conditions; 100 nM Mithramycine A for first 4 hours, 1 nM DZNep for first 24 hours; no pro-Th1 signal; vs DMSO; PMA/Ionomycine restimulation. For orientation: A flow cytometer gives signals particle by particle.

Method: At the end of the culture, cytokine production was assessed by flow cytometry following T cell restimulation with PMA/Ionomycine in the presence of Monensin and intracellular staining.
Spleen and lymph nodes (mesenteric, inguinal, axillary, brachial and cervical) were collected and digested with Liberase TM and DNAse I (Sigma). Single-cell suspensions were then pooled and depleted of erythrocytes by osmotic shock (Red Blood Cell Lysis buffer, Sigma). […] Naïve CD4 T cells, defined as CD4+CD25-CD62LhighCD44low, were labeled with fluorochrome-conjugated monoclonal antibodies specific for CD4 (GK1.5, BD Biosciences), CD25 (PC61, BD Biosciences), CD62L (MEL14, Thermo Fischer Scientific) and CD44 (IM7, BD Biosciences), and purified from the enriched fraction of CD4 T cells by fluorescence-activated cell sorting (FACS Aria, BD Biosciences). […]
For intracellular cytokine staining, cells were first stimulated at 37° C. with 20 ng/mL phorbol 12-myristate 13-acetate (Millipore) and 1 μg/mL ionomycin (Millipore) for 5 hours in the presence of GolgiStop™ (BD Biosciences). […] Flow cytometry was performed by using a LSRII Fortessa cytometer (BD Biosciences) or MACSQuant analyzer 10 (Myltenyi) and the data were analyzed by using FlowJo software (Tree Star). […]

As for `Nc1nccc2c1ncn2[C@@H]1C=C(CO)[C@@H](O)[C@H]1O` [DZNEP, 3-Deazaneplanocin A], the “IFN-γ production by Th2 cells (frequency of IFNg-producing cells)” value is on record as “start to produce pro-Th1 factor, in particular IFN-γ”.
